Experimental data published in patent US20200172529A1, “Chemical Compound, Pharmaceutical Composition Thereof, and Use and Application Thereof” (Beijing Hanmi Pharm. Co., Ltd., priority 2017, published 2020).
Each block holds one molecule with its values, some of them ahead of it.

How the values were obtained:
Type in all cases: biochemical
JAK3 kinase = target: T1, JAK3 kinase (Homo sapiens, UniProt P52333); experiment: Inhibition assay of JAK3 kinase activity (ADP-Glo Kinase Assay)
T1 sequence (P52333 1-1124): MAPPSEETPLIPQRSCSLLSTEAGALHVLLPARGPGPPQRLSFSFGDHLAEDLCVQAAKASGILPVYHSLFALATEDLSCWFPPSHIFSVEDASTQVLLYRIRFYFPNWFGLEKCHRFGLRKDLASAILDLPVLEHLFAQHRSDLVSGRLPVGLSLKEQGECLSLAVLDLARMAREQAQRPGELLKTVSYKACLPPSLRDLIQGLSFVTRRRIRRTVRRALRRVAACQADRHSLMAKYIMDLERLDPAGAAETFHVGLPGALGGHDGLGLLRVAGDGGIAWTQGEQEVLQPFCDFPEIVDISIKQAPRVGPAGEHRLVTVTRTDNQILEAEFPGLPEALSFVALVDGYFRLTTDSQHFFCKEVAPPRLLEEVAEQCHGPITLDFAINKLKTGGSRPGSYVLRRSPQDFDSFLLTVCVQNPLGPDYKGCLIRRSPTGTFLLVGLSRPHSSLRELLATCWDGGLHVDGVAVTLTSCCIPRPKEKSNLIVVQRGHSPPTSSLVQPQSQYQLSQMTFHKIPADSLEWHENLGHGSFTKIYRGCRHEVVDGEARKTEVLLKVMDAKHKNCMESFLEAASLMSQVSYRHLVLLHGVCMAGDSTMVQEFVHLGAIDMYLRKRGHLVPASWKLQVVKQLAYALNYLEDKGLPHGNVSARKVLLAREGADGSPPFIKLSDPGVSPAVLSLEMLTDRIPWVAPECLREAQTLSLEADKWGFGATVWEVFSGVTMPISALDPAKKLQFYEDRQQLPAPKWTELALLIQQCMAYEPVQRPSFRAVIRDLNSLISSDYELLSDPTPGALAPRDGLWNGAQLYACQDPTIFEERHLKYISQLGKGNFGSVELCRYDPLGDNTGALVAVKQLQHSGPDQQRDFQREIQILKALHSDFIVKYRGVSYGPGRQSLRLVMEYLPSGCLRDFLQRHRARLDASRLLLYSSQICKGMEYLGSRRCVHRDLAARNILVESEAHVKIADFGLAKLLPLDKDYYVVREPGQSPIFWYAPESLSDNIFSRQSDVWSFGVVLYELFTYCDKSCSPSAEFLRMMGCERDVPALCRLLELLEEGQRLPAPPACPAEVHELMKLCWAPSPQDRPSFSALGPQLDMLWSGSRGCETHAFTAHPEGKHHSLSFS
Excerpt: Inhibition assay of JAK3 kinase activity: the method in ADP-Glo™ Kinase Assay (Promega, V9102) was used to determine the inhibitory activity of the test compounds against JAK3 kinase.

JAK2 kinase = JAK2 kinase (Homo sapiens, UniProt O60674); experiment: Inhibition assay of JAK2 kinase activity (ADP-Glo Kinase Assay)
Excerpt: Inhibition assay of JAK2 kinase activity: the method in ADP-Glo™ Kinase Assay (Promega, V9102) was used to determine the inhibitory activity of the test compounds against JAK2 kinase.

TYK2 kinase = target: T2, TYK2 kinase (Homo sapiens, UniProt P29597); experiment: Inhibition assay of TYK2 kinase activity (ADP-Glo Kinase Assay)
T2 construct: purchased Life Technologies PR8440C
Method in brief: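 Enzyme at 0.8 ng/mL (2-fold final) in 40 mM Tris-HCl pH 7.5, 20 mM MgCl2, 0.1 mg/mL BSA, 1 mM DTT, preincubated 10 min with compound (6 points, 10-fold dilutions from 10 μM). ATP plus polyE4Y1 then added for 60 min at room temperature. ADP-Glo luminescence read and IC50 derived.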

SYK kinase = SYK kinase (Homo sapiens, UniProt P43405); experiment: Inhibition assay of SYK kinase activity (ADP-Glo Kinase Assay)
Excerpt: Inhibition assay of SYK kinase activity: the method in ADP-Glo™ Kinase Assay (Promega, V9102) was used to determine the inhibitory activity of the test compounds against SYK kinase.

JAK1 kinase = JAK1 kinase (Homo sapiens, UniProt P23458); experiment: Inhibition assay of JAK1 kinase activity (ADP-Glo Kinase Assay)
Excerpt: Inhibition assay of JAK1 kinase activity: the method in ADP-Glo™ Kinase Assay (Promega, V9102) was used to determine the inhibitory activity of the test compounds against JAK1 kinase.

Sequence of JAK2 kinase (O60674 whole entry): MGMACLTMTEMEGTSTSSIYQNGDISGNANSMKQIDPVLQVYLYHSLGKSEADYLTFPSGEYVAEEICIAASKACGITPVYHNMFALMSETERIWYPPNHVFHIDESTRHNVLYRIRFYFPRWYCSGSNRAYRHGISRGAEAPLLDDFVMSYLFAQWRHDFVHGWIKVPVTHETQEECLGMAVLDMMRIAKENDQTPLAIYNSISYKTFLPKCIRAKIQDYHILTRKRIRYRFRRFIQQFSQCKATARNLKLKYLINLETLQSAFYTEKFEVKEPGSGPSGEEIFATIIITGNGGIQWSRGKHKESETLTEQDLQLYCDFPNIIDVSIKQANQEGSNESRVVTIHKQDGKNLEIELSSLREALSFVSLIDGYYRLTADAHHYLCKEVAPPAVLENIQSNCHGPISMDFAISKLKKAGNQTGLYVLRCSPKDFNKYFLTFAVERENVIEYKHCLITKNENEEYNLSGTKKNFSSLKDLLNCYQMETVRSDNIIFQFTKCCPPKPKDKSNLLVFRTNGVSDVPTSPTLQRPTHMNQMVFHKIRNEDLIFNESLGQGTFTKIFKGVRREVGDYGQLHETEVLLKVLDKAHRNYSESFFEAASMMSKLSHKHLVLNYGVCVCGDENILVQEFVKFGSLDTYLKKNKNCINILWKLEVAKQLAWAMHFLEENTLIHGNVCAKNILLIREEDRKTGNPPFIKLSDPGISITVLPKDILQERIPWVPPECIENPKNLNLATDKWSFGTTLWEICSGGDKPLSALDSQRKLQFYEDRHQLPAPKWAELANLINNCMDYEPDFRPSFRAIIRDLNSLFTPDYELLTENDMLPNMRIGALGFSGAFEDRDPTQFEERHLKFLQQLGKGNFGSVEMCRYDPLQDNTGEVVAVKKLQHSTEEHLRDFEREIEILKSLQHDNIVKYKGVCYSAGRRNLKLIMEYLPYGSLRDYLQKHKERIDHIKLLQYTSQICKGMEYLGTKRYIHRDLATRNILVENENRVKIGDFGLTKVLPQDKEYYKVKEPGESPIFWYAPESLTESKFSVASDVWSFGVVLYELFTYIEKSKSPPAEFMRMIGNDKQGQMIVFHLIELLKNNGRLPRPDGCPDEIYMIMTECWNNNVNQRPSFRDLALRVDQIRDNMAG
T2 sequence (P29597 whole entry): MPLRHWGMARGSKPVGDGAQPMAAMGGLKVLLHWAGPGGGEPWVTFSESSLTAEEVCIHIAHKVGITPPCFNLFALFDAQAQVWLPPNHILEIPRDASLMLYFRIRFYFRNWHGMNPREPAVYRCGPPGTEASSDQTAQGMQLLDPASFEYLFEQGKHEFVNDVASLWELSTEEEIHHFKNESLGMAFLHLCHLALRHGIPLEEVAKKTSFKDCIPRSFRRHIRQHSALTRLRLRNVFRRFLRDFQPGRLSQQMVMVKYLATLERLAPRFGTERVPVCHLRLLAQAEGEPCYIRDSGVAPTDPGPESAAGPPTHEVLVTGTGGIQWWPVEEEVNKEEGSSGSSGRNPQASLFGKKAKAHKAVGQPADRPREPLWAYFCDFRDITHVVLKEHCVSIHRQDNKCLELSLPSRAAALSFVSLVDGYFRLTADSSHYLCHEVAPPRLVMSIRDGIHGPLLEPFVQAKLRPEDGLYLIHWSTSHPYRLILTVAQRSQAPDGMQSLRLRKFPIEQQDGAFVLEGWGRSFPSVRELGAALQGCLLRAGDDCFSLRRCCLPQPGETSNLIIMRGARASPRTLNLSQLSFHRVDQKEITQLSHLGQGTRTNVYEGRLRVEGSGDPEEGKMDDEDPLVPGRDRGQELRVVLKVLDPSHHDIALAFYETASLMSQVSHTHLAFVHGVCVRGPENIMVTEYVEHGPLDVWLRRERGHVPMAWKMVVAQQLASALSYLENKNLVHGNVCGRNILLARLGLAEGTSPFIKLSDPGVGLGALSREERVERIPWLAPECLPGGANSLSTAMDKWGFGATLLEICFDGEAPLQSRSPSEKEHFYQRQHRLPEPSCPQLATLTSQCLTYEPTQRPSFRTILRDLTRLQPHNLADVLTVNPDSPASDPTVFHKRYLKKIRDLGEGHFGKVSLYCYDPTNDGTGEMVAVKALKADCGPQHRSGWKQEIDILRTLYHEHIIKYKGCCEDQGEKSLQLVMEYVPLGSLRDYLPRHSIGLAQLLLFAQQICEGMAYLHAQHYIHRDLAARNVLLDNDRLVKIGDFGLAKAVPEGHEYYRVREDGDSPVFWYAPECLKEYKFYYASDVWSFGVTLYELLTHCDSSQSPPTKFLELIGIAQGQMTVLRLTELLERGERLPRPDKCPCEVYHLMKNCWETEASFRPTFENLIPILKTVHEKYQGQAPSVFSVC
Sequence of JAK1 kinase (P23458 whole entry): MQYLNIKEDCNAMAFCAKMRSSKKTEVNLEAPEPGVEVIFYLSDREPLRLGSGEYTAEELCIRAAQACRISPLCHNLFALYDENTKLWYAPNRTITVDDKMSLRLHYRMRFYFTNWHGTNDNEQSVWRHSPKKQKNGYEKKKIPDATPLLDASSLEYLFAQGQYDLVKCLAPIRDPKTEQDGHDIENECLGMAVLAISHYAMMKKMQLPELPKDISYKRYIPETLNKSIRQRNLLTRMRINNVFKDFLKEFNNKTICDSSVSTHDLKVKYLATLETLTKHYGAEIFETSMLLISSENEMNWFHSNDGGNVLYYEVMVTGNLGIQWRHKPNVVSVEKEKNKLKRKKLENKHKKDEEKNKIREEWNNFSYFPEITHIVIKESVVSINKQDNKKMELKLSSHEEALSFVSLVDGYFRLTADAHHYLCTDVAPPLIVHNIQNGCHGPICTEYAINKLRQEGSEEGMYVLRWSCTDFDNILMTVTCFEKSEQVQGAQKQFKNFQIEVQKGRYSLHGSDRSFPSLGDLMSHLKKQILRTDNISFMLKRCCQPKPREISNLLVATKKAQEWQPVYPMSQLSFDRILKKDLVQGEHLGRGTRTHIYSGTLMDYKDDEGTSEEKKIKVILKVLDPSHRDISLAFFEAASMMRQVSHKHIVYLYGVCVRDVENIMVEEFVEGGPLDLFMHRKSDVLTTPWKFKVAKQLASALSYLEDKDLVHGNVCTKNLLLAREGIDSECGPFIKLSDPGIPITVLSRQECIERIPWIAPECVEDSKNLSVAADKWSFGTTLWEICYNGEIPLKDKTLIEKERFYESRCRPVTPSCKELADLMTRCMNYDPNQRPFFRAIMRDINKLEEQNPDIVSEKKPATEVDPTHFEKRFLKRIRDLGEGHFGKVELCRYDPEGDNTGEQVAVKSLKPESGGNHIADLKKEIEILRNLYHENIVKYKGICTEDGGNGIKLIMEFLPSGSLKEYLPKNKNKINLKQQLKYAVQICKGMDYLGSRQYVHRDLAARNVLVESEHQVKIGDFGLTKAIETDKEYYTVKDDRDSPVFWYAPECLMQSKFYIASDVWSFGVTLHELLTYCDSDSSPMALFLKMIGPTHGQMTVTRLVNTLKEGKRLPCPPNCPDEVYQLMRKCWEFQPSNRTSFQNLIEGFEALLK

Structure (SMILES): COCCO[C@@H]1CNc2cc(Nc3ncc(C(N)=O)c(NC4CC4)n3)ccc2OC1 [Example 86, 4-(cyclopropylamino)-2-(((R)-2,3,4,5-tetrahydro-3-methoxyethoxybenzo[b][1,4]oxazepin-7-yl)amino)pyrimidin-5-carboxamide]
IC50 (JAK3 kinase): 10 to 100 nM
IC50 (JAK2 kinase): < 10 nM
IC50 (TYK2 kinase): < 10 nM
IC50 (SYK kinase): 10 to 100 nM
IC50 (JAK1 kinase): 10 to 100 nM

Structure (SMILES): COCCCO[C@H]1CNc2cc(Nc3ncc(C(N)=O)c(NC4CC4)n3)ccc2OC1 [Example 98, 4-(cyclopropylamino)-2-(((S)-2,3,4,5-tetrahydro-3-(3-methoxypropoxy)benzo[b][1,4]oxazepin-7-yl)amino)pyrimidin-5-carboxamide]
IC50 (JAK3 kinase): 10 to 100 nM
IC50 (JAK2 kinase): 10 to 100 nM
IC50 (TYK2 kinase): < 10 nM
IC50 (SYK kinase): 10 to 100 nM
IC50 (JAK1 kinase): < 10 nM

Structure (SMILES): CO[C@@H]1CNc2cc(Nc3ncc(C(N)=O)c(NC4CC4)n3)ccc2OC1 [Example 80, 4-(cyclopropylamino)-2-(((R)-2,3,4,5-tetrahydro-3-methoxybenzo[b][1,4]oxazepin-7-yl)amino)pyrimidin-5-carboxamide]
IC50 (JAK3 kinase): < 10 nM
IC50 (JAK2 kinase): < 10 nM
IC50 (TYK2 kinase): < 10 nM
IC50 (SYK kinase): 10 to 100 nM
IC50 (JAK1 kinase): 10 to 100 nM

Structure (SMILES): CCOC(=O)CO[C@H]1CNc2cc(Nc3ncc(C(N)=O)c(NC4CC4)n3)ccc2OC1 [Example 91, 4-(cyclopropylamino)-2-(((S)-2,3,4,5-tetrahydro-3-ethoxycarbonylmethoxybenzo[b][1,4]oxazepin-7-yl)amino)pyrimidin-5-carboxamide]
IC50 (JAK3 kinase): 10 to 100 nM
IC50 (JAK2 kinase): 10 to 100 nM
IC50 (TYK2 kinase): < 10 nM
IC50 (SYK kinase): 10 to 100 nM
IC50 (JAK1 kinase): < 10 nM

Structure (SMILES): C=CCCNc1nc(Nc2ccc3c(c2)NC[C@H](O)CO3)ncc1C(N)=O [Example 76, 4-(but-3-enylamino)-2-(((S)-2,3,4,5-tetrahydro-3-hydroxybenzo[b][1,4]oxazepin-7-yl)amino)pyrimidin-5-carboxamide]
IC50 (JAK3 kinase): < 10 nM
IC50 (JAK2 kinase): < 10 nM
IC50 (TYK2 kinase): 10 to 100 nM
IC50 (SYK kinase): 10 to 100 nM
IC50 (JAK1 kinase): < 10 nM

Structure (SMILES): COCCCCO[C@H]1CNc2cc(Nc3ncc(C(N)=O)c(NC4CC4)n3)ccc2OC1 [Example 100, 4-(cyclopropylamino)-2-(((S)-2,3,4,5-tetrahydro-3-(4-methoxybutoxy)benzo[b][1,4]oxazepin-7-yl)amino)pyrimidin-5-carboxamide]
IC50 (TYK2 kinase): < 10 nM
IC50 (SYK kinase): 10 to 100 nM
IC50 (JAK1 kinase): < 10 nM

Structure (SMILES): CO[C@H]1CNc2cc(Nc3ncc(C(N)=O)c(NC4C5CC6CC4CC(O)(C6)C5)n3)ccc2OC1 (stereo partly drawn) [Example 90, 4-((5-hydroxyadamantan-2-yl)amino)-2-(((S)-2,3,4,5-tetrahydro-3-methoxybenzo[b][1,4]oxazepin-7-yl)amino)pyrimidin-5-carboxamide]
IC50 (JAK3 kinase): < 10 nM
IC50 (JAK2 kinase): < 10 nM
IC50 (TYK2 kinase): < 10 nM
IC50 (SYK kinase): 10 to 100 nM

Structure (SMILES): NC(=O)c1cnc(Nc2ccc3c(c2)NC[C@H](OCC2CCCCO2)CO3)nc1NC1CC1 (stereo partly drawn) [Example 99, 4-(cyclopropylamino)-2-(((S)-2,3,4,5-tetrahydro-3-(tetrahydro-2H-2-pyranylmethoxy)benzo[b][1,4]oxazepin-7-yl)amino)pyrimidin-5-carboxamide]
IC50 (TYK2 kinase): < 10 nM
IC50 (SYK kinase): 10 to 100 nM
IC50 (JAK1 kinase): < 10 nM

Structure (SMILES): CO[C@H]1CNc2cc(Nc3ncc(C(N)=O)c(NC4C5CC6CC4CC(OC)(C6)C5)n3)ccc2OC1 (stereo partly drawn) [Example 93, 4-((5-methoxyadamantan-2-yl)amino)-2-(((S)-2,3,4,5-tetrahydro-3-methoxybenzo[b][1,4]oxazepin-7-yl)amino)pyrimidin-5-carboxamide]
IC50 (JAK3 kinase): < 10 nM
IC50 (JAK2 kinase): < 10 nM
IC50 (TYK2 kinase): < 10 nM
IC50 (JAK1 kinase): < 10 nM

Structure (SMILES): NC(=O)c1cnc(Nc2ccc3c(c2)NC[C@H](O)CO3)nc1NCC1CCCC1 [Example 73, 4-((cyclopentylmethyl)amino)-2-(((S)-2,3,4,5-tetrahydro-3-hydroxybenzo[b][1,4]oxazepin-7-yl)amino)pyrimidin-5-carboxamide]
IC50 (JAK3 kinase): < 10 nM
IC50 (JAK2 kinase): < 10 nM
IC50 (TYK2 kinase): < 10 nM
IC50 (JAK1 kinase): < 10 nM

Structure (SMILES): NC(=O)c1cnc(Nc2ccc3c(c2)NCC(O)CO3)nc1NC1CCC1 (stereo not drawn) [Example 1, 4-(cyclobutylamino)-2-((3-hydroxy-2,3,4,5-tetrahydro-benzo[b][1,4]oxazepin-7-yl)amino)pyrimidin-5-carboxamide]
IC50 (TYK2 kinase): < 10 nM
IC50 (SYK kinase): 10 to 100 nM
IC50 (JAK1 kinase): < 10 nM

Structure (SMILES): NC(=O)c1cnc(Nc2ccc3c(c2)NC[C@H](OCC2CCCOC2)CO3)nc1NC1CC1 (stereo partly drawn) [Example 102, 4-(cyclopropylamino)-2-(((S)-2,3,4,5-tetrahydro-3-((tetrahydropyran-3-yl)methoxy)benzo[b][1,4]oxazepin-7-yl)amino)pyrimidin-5-carboxamide]
IC50 (JAK3 kinase): 10 to 100 nM
IC50 (JAK2 kinase): 10 to 100 nM
IC50 (TYK2 kinase): < 10 nM
IC50 (JAK1 kinase): < 10 nM

Structure (SMILES): CC(C)(C)OCCO[C@H]1CNc2cc(Nc3ncc(C(N)=O)c(NC4CC4)n3)ccc2OC1 [Example 103, 4-(cyclopropylamino)-2-(((S)-2,3,4,5-tetrahydro-3-(2-(tert-butoxy)ethoxy)benzo[b][1,4]oxazepin-7-yl)amino)pyrimidin-5-carboxamide]
IC50 (JAK3 kinase): 10 to 100 nM
IC50 (JAK2 kinase): 10 to 100 nM
IC50 (TYK2 kinase): < 10 nM
IC50 (JAK1 kinase): < 10 nM

Now from value to molecule:

IC50 (JAK3 kinase): 10 to 100 nM
IC50 (JAK2 kinase): 10 to 100 nM
IC50 (TYK2 kinase): < 10 nM
IC50 (SYK kinase): 10 to 100 nM
IC50 (JAK1 kinase): < 10 nM
Structure (SMILES): C=CCNc1nc(Nc2ccc3c(c2)NC[C@H](O)CO3)ncc1C(N)=O [Example 60, 4-(allylamino)-2-(((S)-2,3,4,5-tetrahydro-3-hydroxybenzo[b][1,4]oxazepin-7-yl)amino)pyrimidin-5-carboxamide]

IC50 (JAK3 kinase): 10 to 100 nM
IC50 (JAK2 kinase): 10 to 100 nM
IC50 (TYK2 kinase): < 10 nM
IC50 (SYK kinase): 10 to 100 nM
IC50 (JAK1 kinase): < 10 nM
Structure (SMILES): CC(C)OCCO[C@H]1CNc2cc(Nc3ncc(C(N)=O)c(NC4CC4)n3)ccc2OC1 [Example 96, 4-(cyclopropylamino)-2-(((S)-2,3,4,5-tetrahydro-3-(2-isopropoxyethoxy)benzo[b][1,4]oxazepin-7-yl)amino)pyrimidin-5-carboxamide]

IC50 (JAK3 kinase): 10 to 100 nM
IC50 (JAK2 kinase): 10 to 100 nM
IC50 (TYK2 kinase): < 10 nM
IC50 (SYK kinase): 10 to 100 nM
IC50 (JAK1 kinase): < 10 nM
Structure (SMILES): CCCNc1nc(Nc2ccc3c(c2)NC[C@H](O)CO3)ncc1C(N)=O [Example 69, 4-(propylamino)-2-(((S)-2,3,4,5-tetrahydro-3-hydroxybenzo[b][1,4]oxazepin-7-yl)amino)pyrimidin-5-carboxamide]

IC50 (JAK3 kinase): 10 to 100 nM
IC50 (JAK2 kinase): 10 to 100 nM
IC50 (TYK2 kinase): < 10 nM
IC50 (SYK kinase): 10 to 100 nM
IC50 (JAK1 kinase): < 10 nM
Structure (SMILES): CC1(CO[C@H]2CNc3cc(Nc4ncc(C(N)=O)c(NC5CC5)n4)ccc3OC2)COC1 [Example 101, 4-(cyclopropylamino)-2-(((S)-2,3,4,5-tetrahydro-3-((3-methyloxetan-3-yl)methoxy)benzo[b][1,4]oxazepin-7-yl)amino)pyrimidin-5-carboxamide]

IC50 (JAK3 kinase): 10 to 100 nM
IC50 (JAK2 kinase): 10 to 100 nM
IC50 (TYK2 kinase): < 10 nM
IC50 (SYK kinase): 10 to 100 nM
IC50 (JAK1 kinase): < 10 nM
Structure (SMILES): C#CCCNc1nc(Nc2ccc3c(c2)NC[C@H](O)CO3)ncc1C(N)=O [Example 66, 4-(but-3-yn-1-ylamino)-2-(((S)-2,3,4,5-tetrahydro-3-hydroxybenzo[b][1,4]oxazepin-7-yl)amino)pyrimidin-5-carboxamide]

IC50 (JAK3 kinase): < 10 nM
IC50 (JAK2 kinase): < 10 nM
IC50 (TYK2 kinase): < 10 nM
IC50 (SYK kinase): 10 to 100 nM
IC50 (JAK1 kinase): 10 to 100 nM
Structure (SMILES): NC(=O)c1cnc(Nc2ccc3c(c2)NC[C@@H](O)CO3)nc1NC1CC1 [Example 25, (R)-4-(cyclopropylamino)-2-((3-hydroxy-2,3,4,5-tetrahydro-benzo[b][1,4]oxazepin-7-yl)amino)pyrimidin-5-carboxamide]
